Literature values as cited in patent publication US12213953B2, “Extended release midodrine hydrochloride compositions and methods of use” (XENAMED CORP., priority 2017, dated 2025).
Where a name gives a salt, the structure may show the parent alone.

Legend:
[1] = high water solubility and high permeability
[2] = oral 10 mg immediate release tablet

SMILES: COc1ccc(OC)c(C(O)CNC(=O)CN)c1 (racemic) [midodrine HCl, (±)-2-amino-N-[2-(2,5-dimethoxyphenyl)-2-hydroxyethyl]acetamide monohydrochloride]
- BCS classification [1]: BCS Class I

SMILES: COc1ccc(OC)c(C(O)CN)c1 (centres unmarked) [desglymidodrine]
- effect of food on bioavailability of desglymidodrine (in vivo): not affected by food
- first peak blood concentration of desglymidodrine [2]: about 10 ng/mL

SMILES: COc1ccc(OC)c(C(O)CNC(=O)CN)c1 (centres unmarked) [midodrine]
- half-life of midodrine [2]: approximately 25 minutes
- time to peak plasma levels of midodrine [2]: about 30 minutes
